In test [1] the target is T1, BIR3 domain (residues 241-356) of human XIAP (Homo sapiens, UniProt P98170).
T1 construct: the BIR3 domain (residues 241-356) of human XIAP fused to His-tag; His-tag
As to the kind of experiment: XIAP binding assay, FP-based (Smac-Flu tracer). To be noted: Table 5. The method, then: An established sensitive and quantitative in vitro fluorescence polarization-based (FP) binding assay for testing of the binding affinity of each new small molecule inhibitor of XIAP is used. […] The competing inhibitor is then added in microtiter wells. If the inhibitor does compete with Smac-Flu to bind to XIAP, it displaces the Smac-Flu peptide from the complex and cause a reduction in the polarization value. […] The change in the polarization value is used to determine the relative affinity of the inhibitor for XIAP. The XIAP used in this assay is the BIR3 domain (residues 241-356) of human XIAP fused to His-tag.
The FP assays were performed as follows: each 96-well contains 50 nM Smac-Flu peptide, 985 nM XIAP protein and 5 ul tested compounds in a final volume of 20 ul. Tested compounds were serially diluted in triplicate in concentration from 0 to 100 uM. For each assay negative controls containing XIAP and Smac-Flu (equivalent to 0% inhibition) and positive controls containing only free Smac-Flu peptide (equivalent to 100% inhibition) were included on each assay plate. The polarization values were measured after 3 hour incubation when the binding reached equilibrium. IC50 values were determined from the plot using nonlinear least-squares analysis. Curve fitting was performed using […] PRISM software. The Kis of competing compounds were derived from the measured IC50 and the Kd of Smac-Flu in the competition assays, using the Cheng-Prusoff equation. The fluorescence intensity of each tested inhibitor is closely monitored to exclude any false positives. Furthermore, compounds with high fluorescence intensity are tested using the NMR methods described below.

The next test relates to Jurkat-Vec cells. Description: Cell growth assay, Jurkat-Vec. The class given is cell-based. To be noted: 2.5 μM, 72 hours. The procedure:
(§1) FIG. 9 presents inhibition of cell growth by embelin in Jurkat-Vec and Jurkat-XIAP cells. The cell growth results are expressed as the percent of control and calculated from the percent of absorbance of treated wells versus that of vehicle control.
(§2) Human prostate cancer cell lines (PC-3, LNCap, CL-1, DU-145), and normal human fibroblast cell line WI-38 were obtained from the American Type Culture Collection (ATCC), were grown and maintained in Dulbecco's modified Eagle's medium (DMEM) containing 10% FBS (Invitrogen Corporation). Normal human prostate epithelial cells (PrEC) were obtained from Clonetics (Cambrex Inc., MD) and maintained in the special medium provided by the company. Jurkat T-cells stably transfected with either empty vector (Jurkat-Vec), or XIAP (Jurkat-XIAP) and were cultured in RPMI 1640 containing 10% fetal calf serum and 1 ug/ml puromycin. Cell cultures were maintained in a humidified incubator at 37° C. and 5% CO2.
Cell growth was determined by the MTT-based assay using Cell Proliferation Reagent WST-1 (Roche) according to the manufacturer's instruction. […] Absorbance was measured with a plate reader at […] with correction at […]. The results are expressed as the percent of absorbance of treated wells versus that of vehicle control.

A further test deals with Jurkat-XIAP cells. As to the kind of experiment: Cell growth assay, Jurkat-XIAP. Format: cell-based. The procedure: as §1, §2
Cell growth was determined by the MTT-based assay using Cell Proliferation Reagent WST-1 (Roche) according to the manufacturer's instruction. The WST-1 assay is a colorimetric assay that measures the reduction of WST-1 by mitochondrial succinate dehydrogenase, which belongs to the respiratory chain of the mitochondria and is active only in viable cells. The WST-1 enters the cells and passes into the mitochondria, where it is reduced to a soluble, colored formazan product. The amount of formazan dye formed directly correlates to the number of metabolically active cells in the culture. Cells (5000 cells/well) were grown in medium with 10% FBS, and various concentrations of drugs were added to the cells in triplicate. […] Absorbance was measured with a plate reader at […] with correction at […]. The results are expressed as the percent of absorbance of treated wells versus that of vehicle control.

The next test concerns caspase-9 in PC-3 cells. Description: Activation of caspase-9 assay, PC-3. Format: cell-based, human. To be noted: for blocking of active caspase-9 staining in Annexin V-FITC positive cells by pre-incubation: embelin-treated PC-3 cells pre-incubated with excessive inhibitor (20 μM LEHD-FMK, 5 min) before staining. The procedure:
FIGS. 7A and 7B show the activation of caspase-9 by embelin in PC-3 prostate cancer cells and its selectivity in normal prostate epithelial cells. 1×10^6 PC-3 or PrEC cells per well in 6-well culture plates were treated with embelin for 48 hours. […] The cells were collected and stained of active caspase-9 by CaspGLOW Red Active Caspase-9 Staining Kit, and analyzed by flow cytometry in PI channel.
1×10^6 PC-3 cells per well in 6-well culture plates, were treated with various concentrations of embelin, or the same amount of solvent DMSO as vehicle control, for up to 48 hr. […] The cells were collected for staining of active caspase-9 by CaspGLOW Red Active Caspase-9 Staining Kit (BioVision, Inc., Mountain View, Calif.) according to the manufacturer's instructions, with modification. Briefly, to each tube containing 1×10^6 treated or control cells in 0.3 ml complete culture medium was added 1 μl of Red-LEHD-FMK and incubated for 0.5 hr at 37° C. incubator with 5% CO2. For double staining with Annexin V-FITC, the cells were spun down and resuspended in 100 μl Binding Buffer containing 1× Annexin V-FITC from the Annexin-V-FLUOS Kit (Roche) and incubated at room temperature for 10 min. The cells were then washed two times with Wash Buffer from the Active Caspase-9 Staining Kit. The cells were resuspended in 0.3 ml Binding Buffer and analyzed by flow cytometry, using PI channel for active caspase-9 and FITC channel for apoptosis.
The active caspase-9 and Annexin V double stained cells were also observed under Zeiss Laser Scanning Confocal Microscope LSM 510 Meta, using the fluorescent filter sets for rhodamine (Red) and FITC (green) channels. Early apoptotic cells show green fluorescence on the cell membrane while caspase-9 positive cells show bright red staining in the cytoplasm. Photos were taken at original magnification of 630×.

For test [2], the target named is XIAP BIR3 protein of human XIAP (residues 241-356) (Homo sapiens, UniProt P98170). As to the kind of experiment: biochemical.
The target in test [3] is T2, human XIAP BIR3 protein (residues 241-356) (Homo sapiens, UniProt P98170).
T2 construct: The human XIAP BIR3 protein (residues 241-356) with a His tag; His tag
As to the kind of experiment: FP direct binding of fluorescent labeled Smac peptides to XIAP BIR3 (Kd titration).

Ends that are not written are not given here. Peptide text beside a SMILES is read from it. * marks the point of attachment. 6FAM = O=C1OC2(c3ccc(O)cc3Oc3cc(O)ccc32)c2cc(C(=O)*)ccc21; Cbz = O=C(OCc1ccccc1)*; CH2F = FC*

T1 sequence (P98170 241-356): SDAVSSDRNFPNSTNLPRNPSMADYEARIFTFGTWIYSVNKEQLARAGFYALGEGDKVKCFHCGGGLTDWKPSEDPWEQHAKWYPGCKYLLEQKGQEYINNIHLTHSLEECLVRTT
T2 sequence (P98170 241-356): as above
Sequence of XIAP BIR3 protein of human XIAP (residues 241-356) (P98170 241-356): as above

One may read the IC50 as the concentration that gives 50% inhibition. A low value points to greater potency. `Cc1cccc(NC(=O)c2cccc(CCC3=C(O)C(=O)C=C(O)C3=O)c2)c1` [CJ-322]: the IC50 in test [1] came out at 4.89 ± 0.75 µM.
On the same count and under the same terms, next, `Cc1ccc(CNC(=O)c2cccc(CCC3=C(O)C(=O)C=C(O)C3=O)c2)cc1` [CJ-315]: 5.27 ± 1.43 µM.
As to `COc1cc([C@@H]2c3cc4c(cc3[C@@H](O[C@@H]3O[C@@H]5CO[C@@H](C)O[C@H]5[C@H](O)[C@H]3O)[C@H]3COC(=O)[C@H]23)OCO4)cc(OC)c1O` [etoposide], the “cells killed in cell growth assay” value was 94.3%±0.6% in the test on Jurkat-Vec cells; 59%±2% with Jurkat-XIAP cells (2.5 μM, 72 hours); 85%±0.1% with Jurkat-XIAP cells (10 μM).
In turn, `Cc1ccc(NC(=O)c2cccc(CCC3=C(O)C(=O)C=C(O)C3=O)c2)cc1` [CJ-305] gave an IC50 in test [1] of 1.62 ± 0.28 µM.
Regarding `Cc1ccccc1NC(=O)c1cccc(CCC2=C(O)C(=O)C=C(O)C2=O)c1` [CJ-323], the IC50 in test [1] is 11.6 ± 0.96 µM.
As to ZDEVD-FMK [reference compound], in the test on caspase-9 in PC-3 cells, the “blocking of active caspase-9 staining in Annexin V-FITC positive cells by pre-incubation” value is on record as “did not”.
`CC(C)c1ccc(CCc2cccc(CCC3=C(O)C(=O)C=C(O)C3=O)c2)cc1` [CJ-294] yielded an IC50 in test [1] of 3.76 ± 0.25 µM.
Consider ARPFAQK [SM7], for which the IC50 in test [2] was 0.57 ± 0.11 µM.
Take `CC(C)CCCCCC1=CC(=O)C=C(O)C1=O` [EW-2]: in test [1], the IC50 is 61.4 ± 9.29 µM.
Same read-out and setting: the result for `O=C1C=C(O)C(=O)C(CCCCc2ccccc2)=C1` [EW-3] reads 353 ± 79.4 µM.
As for “Cbz-Val-Ala-Asp-CH2F [ZVAD peptide, reference compound]”, the “blocking of Annexin V-FITC and active caspase-9 double staining” value with caspase-9 in PC-3 cells (PC-3 cells, 40 μM embelin, 48 hrs) is “blocked”. Moreover, the “inhibition of embelin-induced activation of caspase-9” value in the test on caspase-9 in PC-3 cells (pan-caspase inhibitor added 5 min before embelin) was “effectively inhibited”.
Regarding `C[C@H](N)C(=O)N[C@@H](CCCNC(=N)N)C(=O)N1CCC[C@H]1C(=O)N[C@@H](Cc1ccccc1)C(=O)N[C@@H](C)C(=O)N[C@@H](CCC(N)=O)C(=O)N[C@@H](CCCCNC(=O)c1ccc2c(c1)C1(OC2=O)c2ccc(O)cc2Oc2cc(O)ccc21)C(=O)O` [SM7F, ARPFAQK-FAM] (H-ARPFAQK(6FAM)-OH; N-terminus and C-terminus assumed), in test [3], the “binding affinity compared with S9F” value is “higher binding affinity than S9F”; the “ratio of the Kd values between labeled SM7F and S9F” value is 7.3 times.
In test [1], `O=C1C(O)=C(CCc2cccc(CCc3ccccc3)c2)C(=O)C(O)=C1CCc1ccccc1` [EW-6] had an IC50 of 14.3 ± 2.41 µM.
Same read-out and setting: the result for `O=C1C=C(O)C(=O)C(CCc2cccc(CCc3cccc(Cl)c3)c2)=C1O` [EW-7] reads 9.18 ± 1.9 µM.
For LEHD-FMK [reference compound], in the test with caspase-9 in PC-3 cells, the “blocking of active caspase-9 staining in Annexin V-FITC positive cells by pre-incubation” value is given as “blocked”.
Take `CC(C)c1ccc(CCc2cccc(CCC3=C(O)C(=O)C=C(O)C3=O)c2)cc1` [CJ-301]: the IC50 in test [1] was determined as 3.42 ± 0.31 µM.
Take `O=C1C=C(O)C(=O)C(CCc2cccc(CCc3ccc(Cl)cc3)c2)=C1O` [EW-8]: the IC50 in test [1] was found to be 8.05 ± 1.48 µM.
As for `CCC1=C(O)C(=O)C=C(O)C1=O` [EW-9], the IC50 in test [1] amounted to 475 ± 122 µM.
With `O=C1C=C(O)C(=O)C(CCc2cccc(C(=O)Nc3ccc(Cl)c(Cl)c3)c2)=C1O` [CJ-327], the IC50 in test [1] was 12.3 ± 1.09 µM.
The same measure, in the same setting: next, `CCCCc1cccc(CCC2=C(O)C(=O)C=C(O)C2=O)c1` [EW-4]: 27.6 ± 2.76 µM; `Cc1ccc(CCc2cccc(CCC3=C(O)C(=O)C=C(O)C3=O)c2)cc1` [CJ-274]: 2.14 ± 0.73 µM; `O=C1C=C(O)C(=O)C(CCc2ccccc2)=C1O` [CJ-331]: 89.1 ± 11.3 µM.
